The values that follow come from paper PMC5715595 (British Journal of Pharmacology, 2017).

The target of one series is T1, KV7.1/mink (Homo sapiens, UniProt P51787).
T1 construct: expressed in transfected cells
In words: Whole-cell patch clamp on KV7.1/mink (IKs). It is filed as cell-based. As for the experimental part: (§1) and CiPA Initiative Studies
(§2) =============================================================
(§3) In vitro studies on other ion channels […]
(§4) through NaV1.5, KV4.3, KV7.1/mink, Kir2.1, KV1.5, CaV1.2 and CaV3.2 channels.
(§5) 35-mm dish culture in the conditions mentioned in standard cell culture conditions. Experiments were performed with a cell density enabling isolated cells for patch clamping. Cells were continuously superfused with extracellular medium (1-2 mL∙minute-1) at room temperature.
(§6) D-glucose 10, HEPES 10 and the final pH adjusted to 7.4±0.02 with NaOH for recording NaV1.5, KV4.3, KV7.1/mink, Kir2.1, KV1.5 and CaV3.2 currents. It was (in mM): NaCl 110, KCl 4, BaCl2 20, MgCl2 1, D-glucose 20, HEPES 10 and the final pH adjusted to 7.4 ± 0.02 with NaOH for recording the CaV1.2 current. Compositions of the intracellular solution to fill the pipette are […]
(§7) Composition of intracellular solutions used to fill pipette to record currents through NaV1.5, KV4.3, KV7.1/mink, Kir2.1, KV1.5, CaV1.2 and CaV3.2 channels
(§8) Solution to fill the pipette (mM)
(§9) Creatine-phospho kinase 50 U∙mL-1
(§10) After formation of a Gigaohm seal between the patch electrodes and individual cells (pipette resistance range: 2.0 MΩ - 7.0 MΩ; seal resistance range: > 1 GΩ) the cell membrane across the pipette tip was ruptured to assure electrical access to the cell interior (whole-cell patch-configuration). In case the quality of the seal was poor, the process of seal formation was repeated with a different cell and a new pipette. As soon as a stable seal was established outward tail currents were measured upon pulses described in the Table S2. If current density was judged to be too low for measurement, another cell was recorded. […]
(§11) voltage stimulation protocol indicated in the next table continuously run until the steady-state level of block was reached.
(§12) Stimulation conditions used to record currents through NaV1.5, KV4.3, KV7.1/mink, Kir2.1, KV1.5, CaV1.2 and CaV3.2 channels
(§13) Ion channel Holding potential Pulse / duration Frequency Reference compound […]
(§14) (resting / fast / slow sweeps at one (10 mM) inactivated concentration)
On the technique in general: The patch-clamp technique gives a direct electrical read-out from membranes.

Another series deals with T2, KV1.5 (Homo sapiens, UniProt P22460).
T2 construct: expressed in transfected cells
T2 sequence (P22460 whole entry): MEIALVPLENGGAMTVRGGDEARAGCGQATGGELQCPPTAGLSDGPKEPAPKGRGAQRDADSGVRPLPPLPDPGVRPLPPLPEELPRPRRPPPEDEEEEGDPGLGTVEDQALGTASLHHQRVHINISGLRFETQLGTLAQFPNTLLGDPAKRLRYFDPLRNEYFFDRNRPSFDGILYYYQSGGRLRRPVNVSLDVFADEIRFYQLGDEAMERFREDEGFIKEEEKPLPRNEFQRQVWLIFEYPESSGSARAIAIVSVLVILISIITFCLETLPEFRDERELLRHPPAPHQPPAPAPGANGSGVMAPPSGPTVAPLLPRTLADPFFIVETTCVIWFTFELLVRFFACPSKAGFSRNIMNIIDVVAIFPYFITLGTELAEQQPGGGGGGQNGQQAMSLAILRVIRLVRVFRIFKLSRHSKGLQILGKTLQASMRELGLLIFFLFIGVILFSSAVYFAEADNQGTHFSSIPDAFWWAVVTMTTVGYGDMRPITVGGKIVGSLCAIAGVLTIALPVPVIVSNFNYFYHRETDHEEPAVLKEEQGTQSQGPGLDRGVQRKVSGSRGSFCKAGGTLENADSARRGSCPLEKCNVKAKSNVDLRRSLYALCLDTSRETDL
In words: Whole-cell patch clamp on KV1.5 (IKur). It is filed as cell-based. As for the experimental part: as §1, §2, §3, §4, §5, §6, §7, §8, §9, §10, §11, §12, §13, §14

The next series concerns the target T3, Kir2.1 (Homo sapiens, UniProt P63252).
T3 construct: expressed in transfected cells
T3 sequence (P63252 1-427): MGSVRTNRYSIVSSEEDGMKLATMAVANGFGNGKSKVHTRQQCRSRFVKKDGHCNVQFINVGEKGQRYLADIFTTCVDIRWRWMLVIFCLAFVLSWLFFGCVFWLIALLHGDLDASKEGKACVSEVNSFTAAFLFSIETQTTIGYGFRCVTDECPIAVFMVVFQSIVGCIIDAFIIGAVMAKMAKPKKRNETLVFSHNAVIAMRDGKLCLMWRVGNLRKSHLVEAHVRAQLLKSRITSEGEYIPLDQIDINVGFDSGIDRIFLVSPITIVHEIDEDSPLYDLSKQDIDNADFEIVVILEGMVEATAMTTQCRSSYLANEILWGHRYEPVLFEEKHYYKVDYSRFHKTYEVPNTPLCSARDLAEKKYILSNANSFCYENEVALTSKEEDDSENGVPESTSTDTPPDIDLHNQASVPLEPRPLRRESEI
Kind of series: Whole-cell patch clamp on Kir2.1 (IK1). It is filed as cell-based. The protocol:
as §1, §2, §3, §4, §5, §6, §7, §8, §9, §10, §11, §12, §13, §14

The next series deals with rabbit Purkinje fibres. In words: Dofetilide-induced early after-depolarizations and triggered activity in rabbit Purkinje fibres. The note with it: for APD90: 0.25 Hz. It is filed as cell-based. As for the experimental part:
Following a lethal dose of pentobarbital, the hearts of male New Zealand rabbits were immediately excised and immersed in a modified Tyrode solution maintained at room temperature and previously saturated with O2/CO2 (95%/5%). A piece of ventricle containing free running Purkinje fibres was fixed to the silastic bottom of an organ bath perfused with the same solution maintained at 37°C for 30 min. The preparation was then superfused with the modified Tyrode solution and stimulated for 30 min at 2 Hz and then at 1 Hz (2 ms stimulus at twice threshold). […] After a stabilization period of at least 1 h, action potentials typical for Purkinje fibres were recorded. Action potential reproducibility and stability were confirmed during a further 20 min stabilization period. […] Each was applied for 20 min to enable steady state to be reached. In addition, the emergence of early after‐depolarizations (EADs), favoured by calcium loading during the late phase 2 of the prolonged action potential, is recognized as a better marker of pro‐arrhythmic potential than APD prolongation alone.

For a further series, the target named is α2B‐adrenoceptor (Homo sapiens, UniProt P18089). Kind of series: Affinity at α2B-adrenoceptor. It is filed as binding.
α2B‐adrenoceptor, sequence (P18089 whole entry): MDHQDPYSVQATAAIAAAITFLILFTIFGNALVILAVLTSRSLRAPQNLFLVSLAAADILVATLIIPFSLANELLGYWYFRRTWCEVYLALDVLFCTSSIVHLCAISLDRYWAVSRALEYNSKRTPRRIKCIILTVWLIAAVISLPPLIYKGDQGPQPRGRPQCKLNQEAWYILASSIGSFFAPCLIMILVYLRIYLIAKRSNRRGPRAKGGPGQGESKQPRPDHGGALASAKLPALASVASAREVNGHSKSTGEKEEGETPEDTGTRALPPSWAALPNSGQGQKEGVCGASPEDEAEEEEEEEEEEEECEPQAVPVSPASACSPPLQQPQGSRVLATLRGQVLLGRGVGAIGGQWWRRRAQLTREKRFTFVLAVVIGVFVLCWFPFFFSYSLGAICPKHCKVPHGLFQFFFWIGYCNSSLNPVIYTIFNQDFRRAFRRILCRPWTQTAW
Another series concerns the target α2C‐adrenoceptor (Homo sapiens, UniProt P18825). In words: Affinity at α2C-adrenoceptor. It is filed as binding.
A short description of a further series: in vitro. The note with it: human.
For another series, the system named is humans. The note with it: human, ref Shah et al., 2016, cited from earlier work.
Where [1] appears, read: 10 μM pitolisant, dofetilide 0.1 μM.

As usually defined, the IC50 is the concentration at which inhibition is half-maximal. In general, Ki refers to the equilibrium dissociation constant of an inhibitor or competing ligand from its target. As a reminder, the fraction unbound is the share of the substance not bound to proteins or other matrix. Broadly, the Cmax is the highest concentration seen after dosing.

The structures appear in SMILES notation. Where two headings read alike, the source gives them in different places.

α2C‐adrenoceptor, sequence (P18825 whole entry): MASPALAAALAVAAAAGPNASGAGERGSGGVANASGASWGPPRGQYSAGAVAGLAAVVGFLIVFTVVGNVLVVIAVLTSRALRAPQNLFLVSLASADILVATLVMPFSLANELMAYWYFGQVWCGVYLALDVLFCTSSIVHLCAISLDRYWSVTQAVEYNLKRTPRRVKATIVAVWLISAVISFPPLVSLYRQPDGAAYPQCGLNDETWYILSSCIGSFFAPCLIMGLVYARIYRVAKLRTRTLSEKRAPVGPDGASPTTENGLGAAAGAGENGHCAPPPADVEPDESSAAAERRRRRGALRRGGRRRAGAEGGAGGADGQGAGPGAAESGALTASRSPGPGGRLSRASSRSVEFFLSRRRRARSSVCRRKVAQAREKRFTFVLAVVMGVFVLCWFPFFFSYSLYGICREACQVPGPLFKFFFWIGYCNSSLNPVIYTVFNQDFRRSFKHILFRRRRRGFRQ

Consider `Cl.Clc1ccc(CCCOCCCN2CCCCC2)cc1` [pitolisant, 1‐{3‐[3‐(4‐chlorophenyl)propoxy]propyl}piperidine, hydrochloride], for which the “Fitted IC50” value at KV7.1/mink (KV7.1/mink IKs, Hill curve fit with Hill coefficient of one) is listed as “No effect”. Besides, the IC50 was over 10 µM on KV7.1/mink (KV7.1/mink, IKs); 13.8 µM on KV1.5 (KV1.5 IKur, Hill curve fit with Hill coefficient of one, read-out: Fitted IC50); at least 10 µM on KV1.5 (Pitolisant IC50, KV1.5, IKur); 16.5 µM at Kir2.1 (Kir2.1 IK1, Hill curve fit with Hill coefficient of one, read-out: Fitted IC50); at least 10 µM at Kir2.1 (Pitolisant IC50, Kir2.1, IK1). Moreover, the “effect on dofetilide-induced EADs” value in the series on rabbit Purkinje fibres (1 μM pitolisant, dofetilide 0.1 μM) is “no effect (in four out of four experiments)”. In addition, in the series on rabbit Purkinje fibres (3 μM pitolisant, dofetilide 0.1 μM), the “inhibition of dofetilide-induced EADs (experiments)” value is given as “two out of three”. The “suppression of dofetilide-induced EADs (experiments)” value with rabbit Purkinje fibres (setting [1]) is recorded as “all seven”. The “suppression of dofetilide-induced spontaneous triggered activity (experiments)” value in the series with rabbit Purkinje fibres (setting [1]) is reported as “one out of one”. In addition, the APD90 with rabbit Purkinje fibres (dofetilide 0.1 μM for 1 h10 and pitolisant 10 μM for 15 min) worked out at 275 ms; with rabbit Purkinje fibres (dofetilide 0.1 μM for 55 min and pitolisant 1 μM for 20 min) it was 598 ms. Further, the Ki on α2B‐adrenoceptor is 4.3 µM; at α2C‐adrenoceptor, 1.2 µM. Also, in the series “in vitro”, the unbound share (fraction unbound) was about 0.04. For the same compound, the “maximum mean (90% CI) placebo-corrected increase in QTcF interval from baseline (ΔΔQTcF)” value is recorded as 3.29 (0.35, 6.23) ms in the series on humans (40 mg pitolisant hydrochloride, TQT study); 5.27 (2.35, 8.20) ms with humans (120 mg pitolisant hydrochloride, TQT study); 13.3 (8.1, 18.5) ms with humans (200 mg pitolisant hydrochloride, SAD study); 9.9 (4.7, 15.1) ms with humans (240 mg pitolisant hydrochloride, SAD study). Moreover, the figures for the highest concentration (Cmax) with humans (40 mg), in the series on humans (120 mg) and in the series with humans (240 mg) were 53 ± 27 ng/mL, 164 ± 63 ng/mL and 282 ± 47 ng/mL, respectively.
